Measured values: patent US20240408093A1, “HETEROBIFUNCTIONAL COMPOUNDS AND THEIR USE IN TREATING DISEASE” (HALDA THERAPEUTICS OPCO, INC., priority 2022, published 2024)

Assays:
[1] = biological target: T1, EGFR WT (amino acids 669-1011) (Homo sapiens, UniProt P00533); experiment: KdELECT binding assay, EGFR WT
T1 construct: purchased Eurofins Discovery (KdELECT); host or cells: bacteria (E. coli BL21-derived, T7 phage)
Procedure: Exemplary compounds were tested for ability to bind to EGFR WT (amino acids 669-1011, Accession Number NP_005219.2) or EGFR T790M, L858R (amino acids 669-1011 Accession Number NP_005219.2) expressed from bacteria or mammalian cells, respectively. Compounds were tested using the KdELECT assay at Eurofins Discovery.
Kinase-tagged T7 phage strains were prepared in an E. coli host derived from the BL21 strain. E. coli were grown to log-phase and infected with T7 phage and incubated with shaking at 32° C. until lysis. The lysates were centrifuged and filtered to remove cell debris. The remaining kinases were produced in HEK-293 cells and subsequently tagged with DNA for qPCR detection. Streptavidin-coated magnetic beads were treated with biotinylated small molecule ligands for 30 minutes at room temperature to generate affinity resins for kinase assays. The liganded beads were blocked with excess biotin and washed with blocking buffer (SeaBlock (Pierce), 1% BSA, 0.05% Tween 20, 1 mM DTT) to remove unbound ligand and to reduce non-specific binding. Binding reactions were assembled by combining kinases, liganded affinity beads, and test compounds in 1x binding buffer (20% SeaBlock, 0.17× PBS, 0.05% Tween 20, 6 mM DTT). Test compounds were prepared as 111× stocks in 100% DMSO. Kd values were determined using an 11-point 3-fold compound dilution series with three DMSO control points. All compounds for Kd measurements are distributed by acoustic transfer (non-contact dispensing) in 100% DMSO. The compounds were then diluted directly into the assays such that the final concentration of DMSO was 0.9%. All reactions performed in polypropylene 384-well plate. Each was a final volume of 0.02 mL. The assay plates were incubated at room temperature with shaking for 1 hour and the affinity beads were washed with wash buffer (1× PBS, 0.05% Tween 20). The beads were then re-suspended in elution buffer (1× PBS, 0.05% Tween 20, 0.5 μM nonbiotinylated affinity ligand) and incubated at room temperature with shaking for 30 minutes. The kinase concentration in the eluates was measured by qPCR.

GSPT1 = biological target: T2, GSPT1 (Homo sapiens, UniProt P15170+Q96SW2); experiment: GSPT1 HiBiT degradation assay; type: cell-based; details: HEK293 LgBiT GSPT1 HiBiT cells, 6 hours
T2 construct: host or cells: HEK293 LgBiT / GSPT1 HiBiT CRISPR knock-in
T2 sequence (P15170 whole entry): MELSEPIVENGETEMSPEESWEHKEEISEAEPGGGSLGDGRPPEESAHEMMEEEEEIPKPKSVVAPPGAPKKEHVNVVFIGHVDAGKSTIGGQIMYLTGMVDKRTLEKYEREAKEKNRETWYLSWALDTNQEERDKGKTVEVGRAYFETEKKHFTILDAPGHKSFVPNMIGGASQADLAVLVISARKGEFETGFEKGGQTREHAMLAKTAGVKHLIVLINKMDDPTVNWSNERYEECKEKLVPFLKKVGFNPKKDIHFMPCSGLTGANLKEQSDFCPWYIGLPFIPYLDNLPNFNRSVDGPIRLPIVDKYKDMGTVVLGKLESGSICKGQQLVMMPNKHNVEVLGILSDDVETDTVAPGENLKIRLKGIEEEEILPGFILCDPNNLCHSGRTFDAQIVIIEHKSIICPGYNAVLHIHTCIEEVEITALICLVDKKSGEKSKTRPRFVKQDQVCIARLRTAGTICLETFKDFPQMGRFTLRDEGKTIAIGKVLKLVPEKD
T2 sequence (Q96SW2 whole entry): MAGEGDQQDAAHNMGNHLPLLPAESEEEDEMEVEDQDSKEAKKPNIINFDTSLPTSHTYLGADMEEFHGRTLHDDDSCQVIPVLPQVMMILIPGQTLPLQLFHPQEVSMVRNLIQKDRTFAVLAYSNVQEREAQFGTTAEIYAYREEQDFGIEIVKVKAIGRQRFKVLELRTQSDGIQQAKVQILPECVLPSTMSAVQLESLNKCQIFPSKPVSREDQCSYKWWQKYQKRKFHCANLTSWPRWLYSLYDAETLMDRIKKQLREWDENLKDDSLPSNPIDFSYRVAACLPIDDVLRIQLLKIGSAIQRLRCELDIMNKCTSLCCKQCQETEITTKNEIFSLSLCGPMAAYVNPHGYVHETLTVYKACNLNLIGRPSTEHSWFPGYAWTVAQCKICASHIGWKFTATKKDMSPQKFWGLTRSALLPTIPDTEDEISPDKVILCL
T2 sequence (Q16531 whole entry partner): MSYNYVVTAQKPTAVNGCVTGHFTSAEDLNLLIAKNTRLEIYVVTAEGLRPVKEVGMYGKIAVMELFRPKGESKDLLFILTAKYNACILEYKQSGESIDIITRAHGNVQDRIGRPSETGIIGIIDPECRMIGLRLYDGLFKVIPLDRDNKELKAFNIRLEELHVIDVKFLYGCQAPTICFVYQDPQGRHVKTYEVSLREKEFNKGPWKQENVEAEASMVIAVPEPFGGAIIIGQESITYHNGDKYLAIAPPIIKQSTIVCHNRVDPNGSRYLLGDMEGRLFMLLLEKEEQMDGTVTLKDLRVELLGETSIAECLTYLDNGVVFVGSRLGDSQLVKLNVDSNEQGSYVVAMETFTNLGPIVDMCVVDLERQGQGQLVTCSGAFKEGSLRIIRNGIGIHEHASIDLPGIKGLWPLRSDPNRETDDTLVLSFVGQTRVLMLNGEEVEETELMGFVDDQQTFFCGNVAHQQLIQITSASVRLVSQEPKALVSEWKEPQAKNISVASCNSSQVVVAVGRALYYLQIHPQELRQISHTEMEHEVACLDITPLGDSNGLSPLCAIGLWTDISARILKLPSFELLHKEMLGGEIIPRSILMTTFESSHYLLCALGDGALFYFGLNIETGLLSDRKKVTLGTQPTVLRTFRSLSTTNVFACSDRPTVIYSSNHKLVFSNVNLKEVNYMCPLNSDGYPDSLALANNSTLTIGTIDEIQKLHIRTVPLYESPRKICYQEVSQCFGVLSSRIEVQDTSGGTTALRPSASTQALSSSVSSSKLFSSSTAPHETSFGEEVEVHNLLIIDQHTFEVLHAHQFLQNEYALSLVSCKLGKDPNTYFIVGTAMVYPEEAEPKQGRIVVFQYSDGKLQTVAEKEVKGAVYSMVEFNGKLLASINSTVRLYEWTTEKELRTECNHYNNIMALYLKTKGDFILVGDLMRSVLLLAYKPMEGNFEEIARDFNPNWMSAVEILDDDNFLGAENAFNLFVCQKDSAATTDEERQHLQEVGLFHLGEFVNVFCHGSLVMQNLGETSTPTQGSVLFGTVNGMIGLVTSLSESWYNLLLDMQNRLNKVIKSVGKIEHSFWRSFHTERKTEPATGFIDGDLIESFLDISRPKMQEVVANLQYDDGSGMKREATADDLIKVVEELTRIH
Procedure, shortened: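 HEK293 CRISPR knock-in cells expressing LgBiT and GSPT1-HiBiT were seeded at 1000 cells/well and, after 18-24 h, treated with titrated compound plus endurazine (0.5× final) at 37 °C. Luminescence read after 6 h; loss of signal reflects GSPT1 degradation, giving DC50.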

KRAS G12C = KRAS G12C (Homo sapiens, UniProt P01116, G12C); experiment: KRAS G12C cellular target engagement assay (SW1573 cells); type: cell-based; design: host or cells: SW1573; details: 17 hours, read-out: TE50 (the source's name)
KRAS G12C, sequence (P01116 1-188 isoform P01116-2 G12C): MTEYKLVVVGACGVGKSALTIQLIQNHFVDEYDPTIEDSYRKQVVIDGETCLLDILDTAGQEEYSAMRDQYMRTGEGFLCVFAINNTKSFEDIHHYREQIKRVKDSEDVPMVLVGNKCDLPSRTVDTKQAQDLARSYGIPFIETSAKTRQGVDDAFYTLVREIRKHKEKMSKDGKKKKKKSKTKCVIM
Procedure: SW1573 cells (ATCC CRL-2170) were cultured in RPMI 1640 (Gibco A1049101), supplemented with 10% Heat-inactivated FBS (Gibco Cat. #A38400-01) and 1% Penicillin/Streptomycin (Gibco Cat. #15140-122) in an incubator set at 37° C. and 5% CO2. Cells were seeded at 100,000 cells/ml in 1 ml of complete media in a 24-well, tissue culture-treated plate (Falcon 353226) and incubated overnight. Cells were treated with increasing concentrations of compound and let incubate at 37C and 5% CO2 for 17 hours, after which media was aspirated and cells were lysed in 75 uL RIPA Lysis and Extraction Buffer (Thermo 89901) supplemented with 5 mM MgCl2, Protease and Phosphatase inhibitor cocktail (Thermo 1861281), and Universal Nuclease (Thermo 88700). Plates with RIPA were shaken at 4° C. at 600 rpm for 15 min. After shaking samples, they were collected and spun down at 21,000 g for 15 min at 4° C. Following centrifugation, ˜10 ug of lysate was added to Laemmli Sample Buffer (Bio-Rad 1610747) plus 10% beta-mercaptoethanol, boiled for 15 minutes at 65° C. and loaded onto 12% Mini-PROTEAN TGX™ Precast Protein Gels (Bio-Rad). Protein was transferred to a nitrocellulose membrane (Thermo LC2000) using the iBlot 2 Dry Blotting System (Thermo). After transfer, membranes were washed in 1× TBST (Bioland Scientific LLC TBST0103) 3× for 5 min. Following the wash, blocking buffer (Rockland MB-070) was added for 1 hour at room temperature. Primary antibodies against KRAS (LifeSpan Bio LS-C175665) and actin (Cell Signaling Technology 8457) were added overnight at 4° C. Membranes were then washed again 3× for 5 min in 1× TBST. Secondary antibodies (LI-COR 926-68072 and 926-68073) were added and shaken for 1 hr at room temperature. Membranes were then washed 3× for 5 min in 1×TBST and developed. Membranes were placed on an Odyssey imager (LI-COR).

T1 sequence (P00533 669-1011): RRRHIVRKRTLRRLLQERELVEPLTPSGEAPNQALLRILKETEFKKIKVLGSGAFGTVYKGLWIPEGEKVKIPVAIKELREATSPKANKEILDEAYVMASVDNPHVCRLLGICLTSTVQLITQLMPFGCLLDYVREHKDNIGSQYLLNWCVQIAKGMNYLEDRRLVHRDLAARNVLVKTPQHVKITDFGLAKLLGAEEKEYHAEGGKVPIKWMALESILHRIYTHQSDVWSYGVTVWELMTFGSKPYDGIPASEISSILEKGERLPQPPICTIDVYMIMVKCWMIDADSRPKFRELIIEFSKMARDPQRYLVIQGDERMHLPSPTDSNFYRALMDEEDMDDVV

Row | Compound | Kd [1] | DC50 (GSPT1) | EC50 (KRAS G12C)
1 | C=C(CN(C(=O)NCc1ccc2c(c1)CN(C1CCC(=O)NC1=O)C2=O)c1ccc(C)c(Cl)c1)C(=O)Nc1cc(Nc2ncc(-c3cn(C)c4ccccc34)cn2)c(OC)cc1N(C)CCN(C)C (stereo not drawn) [Compound I-42] | > 2500 nM | > 2500 nM | –
2 | C=C(COc1cc(Cl)cc(NC(=O)NCc2ccc3c(c2)CN(C2CCC(=O)NC2=O)C3=O)c1)C(=O)N[C@@H]1CN(c2nc(Nc3cn(C)nc3OC)c3ncn(C)c3n2)C[C@H]1F (stereo partly drawn) [Compound I-45] | 50 to 500 nM | 500 to 2500 nM | –
3 | C=C(COc1ccc(Cl)cc1NC(=O)NCc1ccc2c(c1)CN(C1CCC(=O)NC1=O)C2=O)C(=O)N[C@@H]1CN(c2nc(Nc3cn(C)nc3OC)c3ncn(C)c3n2)C[C@H]1F (stereo partly drawn) [Compound I-47] | < 50 nM | 50 to 500 nM | –
4 | C=C(COc1cc(Cl)cc(NC(=O)NCc2ccc3c(c2)CN(C2CCC(=O)NC2=O)C3=O)c1)C(=O)N1C[C@H](COc2nc(Nc3cnn(C)c3)nc3[nH]cc(Cl)c23)[C@@H](OC)C1 (stereo partly drawn) [Compound I-54] | > 2500 nM | < 50 nM | –
5 | C=C(COc1cc(Cl)cc(NC(=O)NCc2ccc3c(c2)CN(C2CCC(=O)NC2=O)C3=O)c1)C(=O)Nc1cccc(Oc2nc(Nc3ccc(N4CCN(C)CC4)cc3)nc3ccsc23)c1 (stereo not drawn) [Compound I-55] | > 2500 nM | 50 to 500 nM | –
6 | C=C(COc1cc(Cl)cc(NC(=O)NCc2ccc3c(c2)CN(C2CCC(=O)NC2=O)C3=O)c1)C(=O)Nc1cc(Nc2nccc(-c3cn(C)c4ccccc34)n2)c(OC)cc1N(C)CCN(C)C (stereo not drawn) [Compound I-59] | < 50 nM | 50 to 500 nM | –
7 | C=C(COc1c(Cl)cccc1NC(=O)NCc1ccc2c(c1)CN(C1CCC(=O)NC1=O)C2=O)C(=O)Nc1cc(Nc2nccc(-c3cn(C)c4ccccc34)n2)c(OC)cc1N(C)CCN(C)C (stereo not drawn) [Compound I-60] | 50 to 500 nM | 500 to 2500 nM | –
8 | C=C(COc1cc(Cl)cc(NC(=O)NCc2ccc3c(c2)CN(C2CCC(=O)NC2=O)C3=O)c1)C(=O)Nc1cccc(-c2cccc3cnc(Nc4ccc(N5CCN(CCO)CC5)c(F)c4F)nc23)c1 (stereo not drawn) [Compound I-61] | 500 to 2500 nM | 50 to 500 nM | –
9 | C=C(COc1cc(NC(=O)NCc2ccc3c(c2)CN(C2CCC(=O)NC2=O)C3=O)cc(C(F)(F)F)c1)C(=O)N1CC2(CC(n3nc(-c4ccc5c(cnn5C)c4)c(-c4c(Cl)c(C)cc5[nH]ncc45)c3C)C2)C1 (stereo not drawn) [Compound I-77] | – | 50 to 500 nM | 250 to 5000 nM
10 | C=C(COC(=O)NCCc1ccc(Cl)cc1NC(=O)NCc1ccc2c(c1)CN(C1CCC(=O)NC1=O)C2=O)C(=O)N1CCN(c2nc(OC[C@@H]3CCCN3C)nc3c2CCN(c2cccc4cccc(Cl)c24)C3)C[C@@H]1CC#N (stereo partly drawn) [Compound I-78] | – | 500 to 2500 nM | < 250 nM
11 | C=C(COC(=O)NCCCc1ccc(Cl)cc1NC(=O)NCc1ccc2c(c1)CN(C1CCC(=O)NC1=O)C2=O)C(=O)N1CCN(c2nc(OC[C@@H]3CCCN3C)nc3c2CCN(c2cccc4cccc(Cl)c24)C3)C[C@@H]1CC#N (stereo partly drawn) [Compound I-79] | – | 500 to 2500 nM | < 250 nM
12 | C=C(COc1ccccc1NC(=O)NCc1ccc2c(c1)CN(C1CCC(=O)NC1=O)C2=O)C(=O)N1CCN(c2nc(OC[C@H]3CCCN3C)nc3c2CCN(c2cccc4cccc(Cl)c24)C3)C[C@H]1CC#N (stereo partly drawn) [Compound I-80] | – | > 2500 nM | < 250 nM
13 | C=C(COc1cc(Cl)cc(NC(=O)NCc2ccc3c(c2)CN(C2CCC(=O)NC2=O)C3=O)c1F)C(=O)N1CCN(c2nc(OC[C@@H]3CCCN3C)nc3c2CCN(c2cccc4cccc(Cl)c24)C3)C[C@@H]1CC#N (stereo partly drawn) [Compound I-84] | – | 50 to 500 nM | > 10000 nM
14 | C=C(COc1cc(NC(=O)NCc2ccc3c(c2F)CN(C2CCC(=O)NC2=O)C3=O)cc(C(F)(F)F)c1)C(=O)N1CCN(c2nc(OC[C@@H]3CCCN3C)nc3c2CCN(c2cccc4cccc(Cl)c24)C3)C[C@@H]1CC#N (stereo partly drawn) [Compound I-85] | – | 50 to 500 nM | < 250 nM
15 | C=C(COc1c(Cl)cccc1NC(=O)NCc1ccc2c(c1)CN(C1CCC(=O)NC1=O)C2=O)C(=O)N1CCN(c2nc(OC[C@@H]3CCCN3C)nc3c2CCN(c2cccc4cccc(Cl)c24)C3)C[C@@H]1CC#N (stereo partly drawn) [Compound I-86] | – | < 50 nM | 250 to 5000 nM
16 | C=C(CN1C(=O)CCC(N2Cc3cc(CNC(=O)Nc4ccc(C)c(Cl)c4)ccc3C2=O)C1=O)C(=O)Nc1cc(Nc2ncc(-c3cn(C)c4ccccc34)cn2)c(OC)cc1N(C)CCN(C)C (stereo not drawn) [Compound I-87] | > 2500 nM | 50 to 500 nM | –
17 | C=C(COc1cc(C(F)(F)F)c(Cl)cc1NC(=O)NCc1ccc2c(c1)CN(C1CCC(=O)NC1=O)C2=O)C(=O)N1CCN(c2nc(OC[C@@H]3CCCN3C)nc3c2CCN(c2cccc4cccc(Cl)c24)C3)C[C@@H]1CC#N (stereo partly drawn) [Compound I-88] | – | < 50 nM | < 250 nM
18 | C=C(COc1cc(NC(=O)NCc2ccc3c(c2)CN(C2CCC(=O)NC2=O)C3=O)ccc1OC)C(=O)N1CCN(c2nc(OC[C@@H]3CCCN3C)nc3c2CCN(c2cccc4cccc(Cl)c24)C3)C[C@@H]1CC#N (stereo partly drawn) [Compound I-89] | – | 500 to 2500 nM | 250 to 5000 nM
19 | C=C(COc1c(CNC(=O)Nc2ccc(C)c(Cl)c2)ccc2c1CN(C1CCC(=O)NC1=O)C2=O)C(=O)N1CCN(c2nc(OC[C@@H]3CCCN3C)nc3c2CCN(c2cccc4cccc(Cl)c24)C3)C[C@@H]1CC#N (stereo partly drawn) [Compound I-90] | – | 50 to 500 nM | < 250 nM
20 | C=C(COc1cc(Cl)cc(NC(=O)NCc2ccc3c(c2F)CN(C2CCC(=O)NC2=O)C3=O)c1)C(=O)N1CCN(c2nc(OC[C@@H]3CCCN3C)nc3c2CCN(c2cccc4cccc(Cl)c24)C3)C[C@@H]1CC#N (stereo partly drawn) [Compound I-116] | – | 500 to 2500 nM | < 250 nM
21 | C=C(COC(=O)n1c(CNc2nc(N3CCNCC3)nc3c(Br)cnn23)nc2cc(C)ccc21)C(=O)N1C[C@H](COc2nc(Nc3cnn(C)c3)nc3[nH]cc(Cl)c23)[C@@H](OC)C1 [Compound V-4] | > 2500 nM | – | –
22 | C=C(COc1cc(-c2ccccn2)ccc1CNc1nc(N[C@H](CC)CO)nc2c1ncn2C(C)C)C(=O)N[C@@H]1CN(c2nc(Nc3cn(C)nc3OC)c3ncn(C)c3n2)C[C@H]1F [II-183] | 50 to 500 nM | – | –
23 | C=C(COC(=O)N1CCN(c2nc(NCc3nc4cc(C)ccc4[nH]3)n3ncc(Br)c3n2)CC1)C(=O)N1C[C@H](COc2nc(Nc3cnn(C)c3)nc3[nH]cc(Cl)c23)[C@@H](OC)C1 [II-185] | > 2500 nM | – | –
24 | C=C(CN1CCN(c2nc(NCc3nc4cc(C)ccc4[nH]3)n3ncc(Br)c3n2)CC1)C(=O)Nc1cc(Nc2nccc(-c3cn(C)c4ccccc34)n2)c(OC)cc1N(C)CCN(C)C [II-188] | < 50 nM | – | –
25 | C=C(CN1CCN(c2nc(NCc3nc4cc(C)ccc4[nH]3)n3ncc(Br)c3n2)CC1)C(=O)Nc1cccc(-c2cccc3cnc(Nc4ccc(N5CCN(CCO)CC5)c(F)c4F)nc23)c1 [II-191] | > 2500 nM | – | –
